Laboratory results taken from US10800741B2 (ANCUREALL PHARMACEUTICAL (SHANGHAI) CO., LTD., priority 2017, dated 2020).
Where a chain is given by its changes, count along the chain named.

How the values were obtained:
Assay in all cases: KINOMEscan in vitro binding to 468 labeled protein kinases
protein kinases [1] = target: T1, protein kinases (Homo sapiens, UniProt Q16288); settings: TRKC (NTRK3), read-out: Test compound/solvent control (%)
T1 construct: purchased Discovery X company (USA), KINOMEscan screening platform
T1 sequence (Q16288 32-839): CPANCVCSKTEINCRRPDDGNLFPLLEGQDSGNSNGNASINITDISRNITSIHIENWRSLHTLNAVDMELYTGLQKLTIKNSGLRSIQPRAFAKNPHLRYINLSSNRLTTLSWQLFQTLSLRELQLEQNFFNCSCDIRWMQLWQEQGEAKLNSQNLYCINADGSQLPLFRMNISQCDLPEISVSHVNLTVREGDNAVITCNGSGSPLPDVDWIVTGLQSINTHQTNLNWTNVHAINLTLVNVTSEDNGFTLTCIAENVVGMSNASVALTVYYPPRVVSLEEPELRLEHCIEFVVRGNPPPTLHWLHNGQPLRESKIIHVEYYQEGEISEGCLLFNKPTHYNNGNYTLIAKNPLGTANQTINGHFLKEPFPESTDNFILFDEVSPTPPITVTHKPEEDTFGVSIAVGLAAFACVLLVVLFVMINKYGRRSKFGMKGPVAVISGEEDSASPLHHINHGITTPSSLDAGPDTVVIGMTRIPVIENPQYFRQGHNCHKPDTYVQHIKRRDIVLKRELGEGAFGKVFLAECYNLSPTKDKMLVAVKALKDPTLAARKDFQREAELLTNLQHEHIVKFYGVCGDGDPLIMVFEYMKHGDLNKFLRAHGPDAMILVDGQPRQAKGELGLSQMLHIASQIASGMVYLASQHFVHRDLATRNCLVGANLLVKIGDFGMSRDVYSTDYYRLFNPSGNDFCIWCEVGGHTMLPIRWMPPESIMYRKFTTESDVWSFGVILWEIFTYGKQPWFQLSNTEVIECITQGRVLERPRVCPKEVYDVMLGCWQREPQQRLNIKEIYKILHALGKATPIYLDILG
Summary of the method: (§1)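 Competition binding across 468 labelled kinases on the KINOMEscan platform, compound tested at 1000 nM, 10 nM and 1 nM, duplicate samples. Result given as percentage of DMSO solvent control; lower percentage means stronger binding.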

protein kinases [2] = target: T2, protein kinases (Homo sapiens, UniProt P36888, K663Q); settings: FLT3(K663Q), read-out: Test compound/solvent control (%)
T2 construct: purchased Discovery X company (USA), KINOMEscan screening platform
T2 sequence (P36888 27-993 K663Q): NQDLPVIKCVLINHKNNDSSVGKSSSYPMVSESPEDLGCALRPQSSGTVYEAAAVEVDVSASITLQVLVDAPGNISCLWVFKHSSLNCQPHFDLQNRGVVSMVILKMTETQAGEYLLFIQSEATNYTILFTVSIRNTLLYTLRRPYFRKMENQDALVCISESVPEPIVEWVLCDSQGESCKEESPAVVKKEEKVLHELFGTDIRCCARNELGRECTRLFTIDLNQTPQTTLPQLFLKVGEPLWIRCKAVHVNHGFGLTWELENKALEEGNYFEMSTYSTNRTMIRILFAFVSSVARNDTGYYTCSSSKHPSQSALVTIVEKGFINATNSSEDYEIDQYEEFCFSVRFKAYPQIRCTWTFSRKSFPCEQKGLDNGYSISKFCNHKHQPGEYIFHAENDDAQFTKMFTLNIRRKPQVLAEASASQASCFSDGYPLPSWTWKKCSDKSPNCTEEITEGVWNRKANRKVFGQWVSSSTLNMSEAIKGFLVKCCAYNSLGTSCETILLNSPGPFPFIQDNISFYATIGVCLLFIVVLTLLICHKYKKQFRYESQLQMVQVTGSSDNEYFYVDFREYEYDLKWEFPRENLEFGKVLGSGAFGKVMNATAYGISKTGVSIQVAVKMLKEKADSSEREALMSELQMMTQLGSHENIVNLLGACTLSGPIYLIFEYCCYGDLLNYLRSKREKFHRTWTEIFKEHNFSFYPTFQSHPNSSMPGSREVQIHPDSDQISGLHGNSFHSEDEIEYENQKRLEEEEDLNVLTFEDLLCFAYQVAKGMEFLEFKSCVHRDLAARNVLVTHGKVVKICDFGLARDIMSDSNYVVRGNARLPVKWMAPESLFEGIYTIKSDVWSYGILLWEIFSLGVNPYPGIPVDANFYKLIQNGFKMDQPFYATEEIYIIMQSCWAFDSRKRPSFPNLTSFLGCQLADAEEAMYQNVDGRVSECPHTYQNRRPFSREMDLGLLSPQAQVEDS
Summary of the method: as §1

protein kinases [3] = target: T3, protein kinases (Homo sapiens, UniProt P36888, R834Q); settings: FLT3(R834Q), read-out: Test compound/solvent control (%)
T3 construct: purchased Discovery X company (USA), KINOMEscan screening platform
T3 sequence (P36888 27-993 R834Q): T2 sequence (P36888 27-993 K663Q) with Q637K, R808Q
Summary of the method: as §1

protein kinases [4] = target: T4, protein kinases (Homo sapiens, UniProt P04629); settings: TRKA (NTRK1), read-out: Test compound/solvent control (%)
T4 construct: purchased Discovery X company (USA), KINOMEscan screening platform
T4 sequence (P04629 33-796): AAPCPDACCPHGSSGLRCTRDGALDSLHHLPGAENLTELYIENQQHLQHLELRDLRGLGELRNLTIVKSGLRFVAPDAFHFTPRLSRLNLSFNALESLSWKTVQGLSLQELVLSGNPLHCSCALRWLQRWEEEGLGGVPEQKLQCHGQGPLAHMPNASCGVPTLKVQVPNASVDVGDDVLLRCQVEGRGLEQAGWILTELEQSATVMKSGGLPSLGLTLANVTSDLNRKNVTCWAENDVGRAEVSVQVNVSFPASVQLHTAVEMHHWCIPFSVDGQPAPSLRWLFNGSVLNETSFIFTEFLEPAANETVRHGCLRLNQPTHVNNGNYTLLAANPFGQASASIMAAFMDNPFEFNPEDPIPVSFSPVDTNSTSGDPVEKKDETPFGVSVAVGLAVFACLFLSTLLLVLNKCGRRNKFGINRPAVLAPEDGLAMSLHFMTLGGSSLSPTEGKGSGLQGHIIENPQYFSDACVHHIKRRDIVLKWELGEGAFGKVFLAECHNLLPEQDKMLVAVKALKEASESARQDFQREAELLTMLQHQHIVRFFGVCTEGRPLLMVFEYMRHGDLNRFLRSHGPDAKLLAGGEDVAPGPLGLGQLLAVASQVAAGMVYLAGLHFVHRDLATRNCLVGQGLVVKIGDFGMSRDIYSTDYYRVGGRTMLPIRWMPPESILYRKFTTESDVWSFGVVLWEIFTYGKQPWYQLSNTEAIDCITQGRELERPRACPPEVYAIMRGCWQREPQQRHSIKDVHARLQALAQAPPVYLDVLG
Summary of the method: as §1

protein kinases [5] = target: T5, protein kinases (Homo sapiens, UniProt O94804); settings: LOK
T5 construct: purchased Discovery X company (USA), KINOMEscan screening platform
T5 sequence (O94804 whole entry): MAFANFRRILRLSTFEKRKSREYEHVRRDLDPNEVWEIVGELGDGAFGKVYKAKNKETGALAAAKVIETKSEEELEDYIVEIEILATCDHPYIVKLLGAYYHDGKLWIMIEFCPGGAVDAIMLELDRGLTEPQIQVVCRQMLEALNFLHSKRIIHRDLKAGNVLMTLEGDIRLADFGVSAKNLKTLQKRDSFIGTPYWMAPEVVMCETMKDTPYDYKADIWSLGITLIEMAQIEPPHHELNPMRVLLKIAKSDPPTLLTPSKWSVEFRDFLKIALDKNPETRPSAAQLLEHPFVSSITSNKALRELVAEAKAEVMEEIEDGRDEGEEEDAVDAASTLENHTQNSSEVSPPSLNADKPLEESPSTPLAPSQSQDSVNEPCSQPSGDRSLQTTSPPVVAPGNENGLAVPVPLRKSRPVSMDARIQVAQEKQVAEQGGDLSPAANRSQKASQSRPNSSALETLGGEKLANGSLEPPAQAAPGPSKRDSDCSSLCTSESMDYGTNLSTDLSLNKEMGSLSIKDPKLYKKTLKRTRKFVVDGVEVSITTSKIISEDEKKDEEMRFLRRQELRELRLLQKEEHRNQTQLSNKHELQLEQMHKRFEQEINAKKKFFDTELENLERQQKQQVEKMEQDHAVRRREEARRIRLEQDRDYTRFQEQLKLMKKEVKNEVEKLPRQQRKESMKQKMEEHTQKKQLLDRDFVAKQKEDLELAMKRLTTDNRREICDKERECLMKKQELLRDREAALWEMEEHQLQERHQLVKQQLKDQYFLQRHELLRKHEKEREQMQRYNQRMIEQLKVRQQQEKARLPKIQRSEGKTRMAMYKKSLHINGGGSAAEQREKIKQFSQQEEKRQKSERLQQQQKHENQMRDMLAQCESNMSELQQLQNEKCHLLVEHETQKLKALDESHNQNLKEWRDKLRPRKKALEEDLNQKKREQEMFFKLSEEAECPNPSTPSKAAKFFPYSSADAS
Summary of the method: as §1

protein kinases [6] = target: T6, protein kinases (Homo sapiens, UniProt P00533); settings: EGFR
T6 construct: purchased Discovery X company (USA), KINOMEscan screening platform
T6 sequence (P00533 25-1210): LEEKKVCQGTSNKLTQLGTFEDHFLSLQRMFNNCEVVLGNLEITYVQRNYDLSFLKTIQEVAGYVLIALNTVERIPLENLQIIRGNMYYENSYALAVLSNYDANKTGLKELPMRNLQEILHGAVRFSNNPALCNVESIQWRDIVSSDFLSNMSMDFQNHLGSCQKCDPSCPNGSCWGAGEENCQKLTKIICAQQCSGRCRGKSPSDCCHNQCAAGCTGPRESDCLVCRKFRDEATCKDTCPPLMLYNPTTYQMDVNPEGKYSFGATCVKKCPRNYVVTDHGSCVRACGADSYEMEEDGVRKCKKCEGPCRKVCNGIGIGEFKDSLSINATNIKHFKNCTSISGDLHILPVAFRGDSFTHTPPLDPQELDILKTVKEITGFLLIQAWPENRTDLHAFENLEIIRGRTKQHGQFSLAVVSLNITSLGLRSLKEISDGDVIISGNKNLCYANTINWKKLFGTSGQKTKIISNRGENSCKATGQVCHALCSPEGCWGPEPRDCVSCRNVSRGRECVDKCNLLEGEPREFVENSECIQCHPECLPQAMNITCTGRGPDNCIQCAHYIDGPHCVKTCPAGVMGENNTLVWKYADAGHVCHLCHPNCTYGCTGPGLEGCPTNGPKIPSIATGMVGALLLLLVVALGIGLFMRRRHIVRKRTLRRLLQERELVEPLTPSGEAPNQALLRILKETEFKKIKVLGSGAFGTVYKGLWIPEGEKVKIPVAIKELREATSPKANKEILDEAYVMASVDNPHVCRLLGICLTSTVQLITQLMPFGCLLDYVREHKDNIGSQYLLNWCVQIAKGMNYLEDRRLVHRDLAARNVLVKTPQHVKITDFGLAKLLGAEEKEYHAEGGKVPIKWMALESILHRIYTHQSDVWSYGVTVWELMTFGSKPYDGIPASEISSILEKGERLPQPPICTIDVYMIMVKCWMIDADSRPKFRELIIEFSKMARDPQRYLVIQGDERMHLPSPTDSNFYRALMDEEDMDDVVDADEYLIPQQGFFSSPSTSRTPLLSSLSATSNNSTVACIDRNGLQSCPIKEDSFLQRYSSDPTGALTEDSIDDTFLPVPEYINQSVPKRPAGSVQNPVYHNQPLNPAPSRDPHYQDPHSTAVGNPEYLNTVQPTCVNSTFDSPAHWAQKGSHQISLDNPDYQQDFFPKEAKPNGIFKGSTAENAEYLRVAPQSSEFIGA
Summary of the method: as §1

protein kinases [7] = target: T7, protein kinases (Homo sapiens, UniProt P00533, L858R); settings: EGFR(L858R)
T7 construct: purchased Discovery X company (USA), KINOMEscan screening platform
T7 sequence (P00533 25-1210 L858R): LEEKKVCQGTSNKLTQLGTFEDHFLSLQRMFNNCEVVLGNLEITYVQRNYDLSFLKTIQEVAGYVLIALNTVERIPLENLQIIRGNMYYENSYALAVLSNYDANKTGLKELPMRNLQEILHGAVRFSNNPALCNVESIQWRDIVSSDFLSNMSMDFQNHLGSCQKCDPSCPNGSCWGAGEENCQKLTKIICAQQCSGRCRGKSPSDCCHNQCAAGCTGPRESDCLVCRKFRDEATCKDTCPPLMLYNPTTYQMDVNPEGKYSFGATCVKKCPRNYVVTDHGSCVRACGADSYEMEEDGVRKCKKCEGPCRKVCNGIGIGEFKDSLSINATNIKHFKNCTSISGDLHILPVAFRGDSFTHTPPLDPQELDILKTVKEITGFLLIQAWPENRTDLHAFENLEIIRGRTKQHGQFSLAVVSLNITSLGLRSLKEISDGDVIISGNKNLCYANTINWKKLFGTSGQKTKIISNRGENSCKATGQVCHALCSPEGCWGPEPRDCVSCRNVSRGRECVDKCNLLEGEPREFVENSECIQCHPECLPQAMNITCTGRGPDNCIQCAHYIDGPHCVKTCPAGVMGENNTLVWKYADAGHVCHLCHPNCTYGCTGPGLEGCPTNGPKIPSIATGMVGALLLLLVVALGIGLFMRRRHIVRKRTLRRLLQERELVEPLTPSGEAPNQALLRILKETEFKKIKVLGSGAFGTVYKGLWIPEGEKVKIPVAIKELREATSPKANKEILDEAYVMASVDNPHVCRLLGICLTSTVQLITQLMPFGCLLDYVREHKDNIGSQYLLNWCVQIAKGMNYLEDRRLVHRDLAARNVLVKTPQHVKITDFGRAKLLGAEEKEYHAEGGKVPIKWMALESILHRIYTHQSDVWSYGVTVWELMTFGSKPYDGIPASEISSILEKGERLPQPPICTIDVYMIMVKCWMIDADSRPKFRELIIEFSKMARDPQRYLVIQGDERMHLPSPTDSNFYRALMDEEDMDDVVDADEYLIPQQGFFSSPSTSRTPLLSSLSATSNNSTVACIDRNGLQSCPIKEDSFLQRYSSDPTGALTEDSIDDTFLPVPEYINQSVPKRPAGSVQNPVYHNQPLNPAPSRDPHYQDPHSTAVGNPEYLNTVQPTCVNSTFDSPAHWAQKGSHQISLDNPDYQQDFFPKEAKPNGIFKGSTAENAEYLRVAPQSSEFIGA
Summary of the method: as §1

protein kinases [8] = target: T8, protein kinases (Homo sapiens, UniProt P06239); settings: LCK, read-out: Test compound/solvent control (%)
T8 construct: purchased Discovery X company (USA), KINOMEscan screening platform
Summary of the method: as §1

With `COCCOc1cc2nccc(Oc3ccc(NC(=O)Nc4cc(C(C)(C)C)n[nH]4)c(Cl)c3)c2cc1NC(C)=O` [Compound 66, N-[4-{4-[3-(5-tert-butyl-2H-pyrazol-3-yl)-ureido]-3-chloro-phenoxy}-7-(2-methoxy-ethoxy)-quinolin-6-yl]-acetamide] the remaining binding at 0.001 µM (protein kinases [1]; 1 nM) was 84%, the remaining binding at 0.01 µM (protein kinases [1]; 10 nM) was 28% and the remaining binding at 1 µM (protein kinases [1]; 1000 nM) was 0.2%. For the same compound, the remaining binding at 0.001 µM (protein kinases [2]; 1 nM) was 89%, the remaining binding at 0.01 µM (protein kinases [2]; 10 nM) was 22% and the remaining binding at 1 µM (protein kinases [2]; 1000 nM) was 3.2%. For the same compound, the remaining binding at 0.001 µM (protein kinases [3]; 1 nM) was 83%, the remaining binding at 0.01 µM (protein kinases [3]; 10 nM) was 45% and the remaining binding at 1 µM (protein kinases [3]; 1000 nM) was 0.6%. The remaining binding at 0.001 µM (protein kinases [4]; 1 nM) was 48%, the remaining binding at 0.01 µM (protein kinases [4]; 10 nM) was 5.5% and the remaining binding at 1 µM (protein kinases [4]; 1000 nM) was 0.2%. The “Test compound/solvent control (%)” value (protein kinases [5]; 1 nM) was 57%, the “Test compound/solvent control (%)” value (protein kinases [5]; 10 nM) was 1.3% and the “Test compound/solvent control (%)” value (protein kinases [5]; 1000 nM) was 0%. For the same compound, the “Test compound/solvent control (%)” value (protein kinases [6]; 1 nM) was 100%, the “Test compound/solvent control (%)” value (protein kinases [6]; 10 nM) was 26% and the “Test compound/solvent control (%)” value (protein kinases [6]; 1000 nM) was 0%. For the same compound, the “Test compound/solvent control (%)” value (protein kinases [7]; 1 nM) was 87%, the “Test compound/solvent control (%)” value (protein kinases [7]; 10 nM) was 28% and the “Test compound/solvent control (%)” value (protein kinases [7]; 1000 nM) was 0%. For the same compound, the remaining binding at 0.001 µM (protein kinases [8]; 1 nM) was 33%, the remaining binding at 0.01 µM (protein kinases [8]; 10 nM) was 0.65% and the remaining binding at 1 µM (protein kinases [8]; 1000 nM) was 0.2%.
